In patent US5006534A, “Substituted ethers, thioethers and amines for use as lipoxygenase inhibitors” (Bayer Aktiengesellschaft, priority 1985, dated 1991):

Legend:
lipoxygenase = experiment: LTB4 release on polymorphonuclear rat leucocytes (PMN) by RP-HPLC after Ca ionophor, as a measure of lipoxygenase inhibition; assay type: cell-based
Description: The release of leukotriene B4 (LTB4) was determined on polymorphonuclear rat leucocytes (PMN) by means of reverse phase high performance liquid chromatography, after addition of substances and Ca ionophor, in accordance with the method of Borgeat, P. et al., Proc. Nat. Acad. Sci., 76, 2148-2152 (1979) as a measure of the lipoxygenase inhibition.

mouse ear inflammation = mouse ear inflammation model; assay type: in vivo

LO inhibition IC50 values (lipoxygenase) [µg/mL] | Compound | Inhibition of inflammation at 2 mg/ear (mouse ear inflammation) [%]
0.14 | CCCCCC(OC(C)=O)c1cccc(COc2cccc3cccnc23)c1 (centres unmarked) [Example 38, 1-[3-(Quinolin-8-yloxymethyl)phenyl]hexyl acetate] | 75.0
0.26 | CCCCCCC(OC(C)=O)c1cccc(COc2cccc3cccnc23)c1 (centres unmarked) [Example 39, 1-[3-(Quinolin-8-yloxymethyl)phenyl]heptyl acetate] | 72.0
0.23 | CCCCCCC(O)c1cccc(COc2cccc3cccnc23)c1 (centres unmarked) [Example 57, 1-[3-(Quinolin-8-yloxymethyl)phenyl]heptanol] | 86.1
0.083 | CCCCC(O)c1cccc(COc2cccc3cccnc23)c1 (centres unmarked) [Example 55, 1-[3-(Quinolin-8-yloxymethyl)phenyl]pentanol] | 70.0
